This passage reports IC50 results from ChEMBL document CHEMBL4706609, “Development of triazolothiadiazine derivatives as highly potent tubulin polymerization inhibitors: Structure-activity relationship, in vitro and in vivo study” (Eur J Med Chem, 2020).

One experiment deals with HT-29. Description: Antiproliferative activity against human HT-29 cells assessed as reduction in cell growth after 48 hrs by MTT assay. The experiment is classed as functional, cell-based. The note with it: HT-29, 48 h.
The next experiment concerns HeLa. Description: Antiproliferative activity against human HeLa cells assessed as reduction in cell growth after 48 hrs by MTT assay. The format is functional, cell-based. Background: Formazan colour is commonly taken as a measure of viable cells.
Experiment [1] deals with A549. Description: Antiproliferative activity against human A549 cells assessed as reduction in cell growth after 48 hrs by MTT assay. The experiment is classed as functional, cell-based. To be noted: A549, 48 h.
The subject of a further experiment is MCF7. Description: Antiproliferative activity against human MCF7 cells assessed as reduction in cell growth after 48 hrs by MTT assay. The experiment is classed as functional, cell-based. To be noted: MCF7, 48 h.
Another experiment concerns HEK293. Description: Cytotoxicity against HEK293 cells assessed as reduction in cell growth after 48 hrs by MTT assay. The experiment is classed as cell-based. To be noted: Homo sapiens, HEK293, 48 h.
The next experiment has as its system A2780. Description: Antiproliferative activity against paclitaxel-resistant human A2780 cells assessed as reduction in cell growth after 48 hrs by MTT assay. The format is functional, cell-based. The note with it: A2780, 48 h.
In experiment [2] the test system is A549. Description: Antiproliferative activity against cisplatin resistant human A549 cells assessed as reduction in cell growth after 48 hrs by MTT assay. The experiment is classed as functional, cell-based. The note with it: A549, 48 h.
The nature of experiment [3]: Inhibition of porcine brain tubulin polymerization measured for 20 mins by spectrometric assay. The experiment is classed as tissue-based, Sus scrofa.

In general, IC50 refers to the concentration at which inhibition is half-maximal. With `COc1cc(-c2nnc3n2N=C(c2ccc([N+](=O)[O-])cc2)CS3)cc(OC)c1OC`, the IC50 in the experiment with HT-29 is more than 20 µM.

`COc1cc(-c2nnc3n2N=C(c2cccs2)CS3)cc(OC)c1OC`: in the experiment on HT-29, the IC50 turned out to be 4.25 µM.

For the compound `CCC1=Nn2c(nnc2-c2cc(OC)c(OC)c(OC)c2)SC1`, the half-inhibitory concentration (IC50) with HT-29 was determined as 15.4 µM.

As to `COc1cc(-c2nnc3n2N=C(NCc2ccc(C)cc2)CS3)cc(OC)c1OC`, the IC50 in the experiment with HT-29 was more than 20 µM.

For the compound `COc1cccc(C2=Nn3c(nnc3-c3cc(OC)c(OC)c(OC)c3)SC2)c1`, the IC50 in the experiment on HT-29 was found to be 5.94 µM.

For the compound `COc1cc(-c2nnc3n2N=C(Nc2ccc(Cl)cc2)CS3)cc(OC)c1OC`, the IC50 in the experiment with HT-29 turned out to be 2.84 µM.

`COc1cc(-c2nnc3n2N=C(c2ccc(O)cc2)CS3)cc(OC)c1OC`: the IC50 with HT-29 came out at 14.1 µM.

With `COc1cc(-c2nnc3n2N=C(NCc2ccc(Cl)cc2)CS3)cc(OC)c1OC`, the half-maximal inhibitory concentration (IC50) in the experiment on HT-29 is more than 20 µM.

In the case of `COc1ccc(-c2nnc3n2N=C(c2cc(OC)c(OC)c(OC)c2)CS3)cc1O`, the half-maximal inhibitory concentration (IC50) in the experiment on HT-29 amounted to 9.86 µM.

On to `COc1cc(-c2nnc3n2N=C(Nc2ccc(S(C)(=O)=O)cc2)CS3)cc(OC)c1OC`, for which the IC50 in the experiment with HT-29 is more than 20 µM.

Take `COc1cc(-c2nnc3n2N=C(Nc2ccccc2C)CS3)cc(OC)c1OC`: in the experiment with HT-29, the IC50 was more than 20 µM.

On to `COc1cc(-c2nnc3n2N=C(Nc2ccc(Br)cc2)CS3)cc(OC)c1OC`, for which the 50% inhibitory concentration (IC50) in the experiment on HT-29 was 18.6 µM.

As to `COc1cc(-c2nnc3n2N=C(C2CC2)CS3)cc(OC)c1OC`, the half-maximal inhibitory concentration (IC50) with HT-29 was more than 20 µM.

With `COc1cc(-c2nnc3n2N=C(c2ccc(Br)cc2)CS3)cc(OC)c1OC`, the half-inhibitory concentration (IC50) in the experiment on HT-29 came to 5.18 µM.

Turning to `COc1cc(-c2nnc3n2N=C(NCCc2ccc(C)cc2)CS3)cc(OC)c1OC`, in the experiment on HT-29, the IC50 is more than 20 µM.

Turning to `COc1cc(-c2nnc3n2N=C(NCc2ccccc2)CS3)cc(OC)c1OC`, the half-maximal inhibitory concentration (IC50) with HT-29 was more than 20 µM.

`COc1cc(-c2nnc3n2N=C(c2cc4ccccc4oc2=O)CS3)cc(OC)c1OC`: the IC50 in the experiment with HT-29 was 10.4 µM.

Take `COc1cc(NC2=Nn3c(nnc3-c3cc(OC)c(OC)c(OC)c3)SC2)cc(OC)c1OC`: the IC50 in the experiment on HT-29 is more than 20 µM.

In the case of `COc1cc(-c2nnc3n2N=C(NCCc2ccc(F)cc2)CS3)cc(OC)c1OC`, in the experiment with HT-29, the IC50 is more than 20 µM.

With `COc1cc(-c2nnc3n2N=C(Nc2c(Cl)cccc2Cl)CS3)cc(OC)c1OC`, the IC50 in the experiment with HT-29 was more than 20 µM.

Consider `COc1cc(C2=Nn3c(nnc3-c3ccc(Cl)cc3)SC2)cc(OC)c1OC`, for which the IC50 with HT-29 was more than 20 µM.

As for `COc1cc(-c2nnc3n2N=C(c2ccco2)CS3)cc(OC)c1OC`, the concentration for half-maximal inhibition (IC50) with HT-29 worked out at 10.8 µM.

As for `COc1cc(-c2nnc3n2N=C(Nc2ccc(F)cc2)CS3)cc(OC)c1OC`, in the experiment on HT-29, the IC50 worked out at 8.11 µM.

On to `COc1cc(-c2nnc3n2N=C(Nc2ccccc2F)CS3)cc(OC)c1OC`, for which the half-inhibitory concentration (IC50) with HT-29 stood at 2.9 µM.

For `COc1cc(-c2nnc3n2N=C(c2ccccc2)CS3)cc(OC)c1OC`, the IC50 in the experiment with HT-29 stood at 5.65 µM.

Take `COc1cc(-c2nnc3n2N=C(c2ccc(C(F)(F)F)cc2)CS3)cc(OC)c1OC`: the IC50 in the experiment on HT-29 is 0.29 µM; in the experiment on HeLa it was 0.019 µM; in the experiment on A549 [1], 0.286 µM; in the experiment with MCF7, 0.241 µM; in the experiment with HEK293 it was more than 100 µM; in the experiment on A2780, 86.5 µM. Also, the IC50 in the experiment on A549 [2] was more than 200 µM; in experiment [3] it was 4.82 µM.

As for `COc1ccc(C2=Nn3c(nnc3-c3cc(OC)c(OC)c(OC)c3)SC2)cc1O`, the 50% inhibitory concentration (IC50) in the experiment on HT-29 came to 9.81 µM.

As to `COc1cc(C2=Nn3c(nnc3-c3cc(OC)c(OC)c(OC)c3)SC2)cc(OC)c1OC`, the half-inhibitory concentration (IC50) in the experiment on HT-29 turned out to be 19.9 µM.

Take `COc1cccc(NC2=Nn3c(nnc3-c3cc(OC)c(OC)c(OC)c3)SC2)c1`: the IC50 with HT-29 came to 12.2 µM.

With `COc1cc(-c2nnc3n2N=C(Nc2ccc(C)cc2)CS3)cc(OC)c1OC`, the IC50 in the experiment on HT-29 is more than 20 µM.

`COc1cc(-c2nnc3n2N=C(c2ccc(F)c(F)c2)CS3)cc(OC)c1OC`: the IC50 in the experiment with HT-29 is more than 20 µM.

With `COc1cc(-c2nnc(SCC(=O)c3ccc(C)cc3F)n2N)cc(OC)c1OC`, the IC50 is 0.131 µM in the experiment with HT-29, 0.04 µM with HeLa, more than 100 µM with A549 [1] and more than 100 µM in the experiment with MCF7.

`COc1cc(-c2nnc3n2N=C(NCc2ccc(Br)cc2)CS3)cc(OC)c1OC`: the IC50 in the experiment with HT-29 is more than 20 µM.

For the compound `COc1ccc(C2=Nn3c(nnc3-c3cc(OC)c(OC)c(OC)c3)SC2)cc1`, the IC50 is 0.18 µM with HT-29; 0.018 µM in the experiment with HeLa; 0.077 µM with A549 [1]; 0.205 µM in the experiment on MCF7; more than 100 µM with HEK293; 62.2 µM with A2780. The results for the IC50 (with A549 [2]; in experiment [3]) were 67.2 µM and 2.39 µM, respectively.

On to `COc1cc(-c2nnc3n2N=C(Nc2cccc(F)c2)CS3)cc(OC)c1OC`, for which the 50% inhibitory concentration (IC50) with HT-29 was more than 20 µM.

Turning to `COc1cc(-c2nnc3n2N=C(c2cccc4ccccc24)CS3)cc(OC)c1OC`, the IC50 in the experiment with HT-29 is 6.02 µM.

In the case of `COc1cc(-c2nnc3n2N=C(Nc2ccc(N4CCOCC4)cc2)CS3)cc(OC)c1OC`, in the experiment with HT-29, the IC50 is more than 20 µM.

Turning to `COc1cc(-c2nnc3n2N=C(c2ccc(F)cc2)CS3)cc(OC)c1OC`, the IC50 in the experiment on HT-29 came out at 8.32 µM.

`COc1cc(-c2nnc3n2N=C(c2cccc(Br)c2)CS3)cc(OC)c1OC`: the IC50 in the experiment on HT-29 turned out to be 15.4 µM.

As for `COc1cc(C2=Nn3c(nnc3-c3ccc(F)cc3)SC2)cc(OC)c1OC`, the IC50 with HT-29 was 19.7 µM.

For the compound `COc1ccc(-c2nnc3n2N=C(c2cc(OC)c(OC)c(OC)c2)CS3)cc1`, in the experiment on HT-29, the IC50 was more than 20 µM.

Regarding `COc1ccc(CCNC2=Nn3c(nnc3-c3cc(OC)c(OC)c(OC)c3)SC2)cc1`, the IC50 in the experiment with HT-29 is more than 20 µM.

As to `COc1cc(-c2nnc3n2N=C(NCCc2ccc(Cl)cc2)CS3)cc(OC)c1OC`, in the experiment on HT-29, the IC50 is more than 20 µM.

For the compound `COc1cc(-c2nnc3n2N=C(c2ccc(-c4ccccc4)cc2)CS3)cc(OC)c1OC`, the IC50 with HT-29 is 13.7 µM.

On to `COc1cc(-c2nnc3n2N=C(C)CS3)cc(OC)c1OC`, for which the IC50 in the experiment with HT-29 was found to be 15.8 µM.

On to `COc1ccc(-c2nnc3n2N=C(c2cc(OC)c(OC)c(OC)c2)CS3)cc1OC`, for which the IC50 with HT-29 was more than 20 µM.

For the compound `COc1cc(C2=Nn3c(nnc3-c3ccc(C)cc3)SC2)cc(OC)c1OC`, in the experiment with HT-29, the IC50 is more than 20 µM.

Turning to `COc1cc(-c2nnc3n2N=C(c2ccccc2C)CS3)cc(OC)c1OC`, in the experiment on HT-29, the IC50 turned out to be 16.1 µM.

Turning to `COc1ccc(/C=C\c2cc(OC)c(OC)c(OC)c2)cc1O` [COMBRETASTATIN A4], the IC50 was found to be 0.021 µM in the experiment with A549 [1], 45.7 µM with HEK293, 72.8 µM with A2780 and 130 µM in the experiment on A549 [2].

As to `COc1cc(-c2nnc3n2N=C(NCCc2ccccc2)CS3)cc(OC)c1OC`, the IC50 with HT-29 was more than 20 µM.

As to `COc1cc(-c2nnc3n2N=C(c2cccc(C)c2)CS3)cc(OC)c1OC`, the IC50 in the experiment with HT-29 was 13.6 µM.

Take `COc1ccc(NC2=Nn3c(nnc3-c3cc(OC)c(OC)c(OC)c3)SC2)cc1`: in the experiment with HT-29, the IC50 was more than 20 µM.

Take `COc1cc(-c2nnc3n2N=C(Nc2ccccc2)CS3)cc(OC)c1OC`: the IC50 in the experiment with HT-29 was 3.25 µM.
